From patent publication US8669266B2, “Quinoline-carboxamide derivatives as P2Y12 antagonists” (Sanofi, priority 2007, dated 2014) come the findings set out here.

The first test deals with human P2Y12 receptor (Homo sapiens (Human), UniProt Q9H244). Put plainly: Human P2Y12 recombinant cell membrane binding assay with 33P 2MeS-ADP. The conditions noted are these: CHO cell membranes with recombinant human P2Y12; competition against 33P 2MeS-ADP. As to the method: The ability of the compounds of the formula I to inhibit the P2Y12 receptor can be assessed by determining the concentration of the compound of the formula I that binds to the human P2Y12 Recombinant Cell Membrane Binding Assay with 33P 2MeS-ADP.
Chain of human P2Y12 receptor (Q9H244 whole entry): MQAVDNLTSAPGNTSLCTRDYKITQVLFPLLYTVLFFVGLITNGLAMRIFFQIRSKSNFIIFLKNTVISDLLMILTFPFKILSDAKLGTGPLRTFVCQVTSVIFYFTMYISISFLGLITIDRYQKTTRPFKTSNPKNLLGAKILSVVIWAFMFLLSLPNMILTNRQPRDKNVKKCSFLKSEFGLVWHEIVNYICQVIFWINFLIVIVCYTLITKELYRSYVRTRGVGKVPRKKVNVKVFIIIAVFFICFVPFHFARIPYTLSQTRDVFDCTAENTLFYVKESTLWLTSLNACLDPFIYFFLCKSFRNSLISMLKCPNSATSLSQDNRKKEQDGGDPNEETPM
Human P2Y12 Recombinant Cell Membrane Binding Assay
The ability of a test compound to bind to the P2Y12 receptor was evaluated in a recombinant cell membrane binding assay. In this competitive binding assay, the test compound competed against a radiolabeled agonist for binding to the P2Y12 receptor, expressed on the cell membrane. Inhibition of binding of the labeled material was measured and correlated to the amount and potency of the test compound.
As source of P2Y12, a membrane preparation was prepared from Chinese Hamster Ovary (CHO) cells with recombinant expression of the human P2Y12 receptor according to standard procedures.
Next, wells were washed four times with 400 μl/well of stop buffer on a plate vacuum. The plate was disassembled and allowed to air dry overnight with the filter side up over night. […] The top of the filter plate was sealed with plastic plate covers. The sealed filter plate were incubated 2 hours at RT. A Microbeta Scintillation Counter was used to measure counts.
Compounds were diluted as 10 mM DMSO stocks and tested in a four-point, five-fold dilution series run in triplicate beginning at 10 μM, final concentration. Data were analyzed using a four-parameter curve fit with a fixed minimum and maximum experimentally defined as the average positive and negative controls on each plate.
Take `CCOC(=O)N1CCN(C(=O)[C@H](CCC(=O)O)NC(=O)c2cc(OCC(=O)N3CCC[C@H]3C(=O)NC3CCC3)c3cc(F)c(F)cc3n2)CC1` [Example 196, 4-[(S)-4-Carboxy-2-({4-[2-((S)-2-cyclobutylcarbamoyl-pyrrolidin-1-yl)-2-oxo-ethoxy]-6,7-difluoro-quinoline-2-carbonyl}-amino)-butyryl]-piperazine-1-carboxylic acid ethyl ester]: the 50% inhibitory concentration (IC50) (as a rule, the concentration that gives 50% inhibition) worked out at 65 nM.

Take `CCCCOC(=O)N1CCN(C(=O)[C@H](CCC(=O)O)NC(=O)c2cc(OCC(=O)N3CCC[C@H]3C(=O)NC3CCC3)c3ccc(C)cc3c2)CC1` [Example 511, 4-[(S)-4-Carboxy-2-({4-[2-((S)-2-cyclobutylcarbamoyl-pyrrolidin-1-yl)-2-oxo-ethoxy]-7-methyl-naphthalene-2-carbonyl}-amino)-butyryl]-piperazine-1-carboxylic acid butyl ester]: the IC50 stood at 21 nM.

`CCOC(=O)N1CCN(C(=O)[C@H](CCC(=O)O)NC(=O)c2cc(O[C@H](C)C(=O)N3CCC[C@H]3C(=O)NCC3CC3)c3ccc(C)cc3n2)CC1` [Example 300, 4-{(S)-4-Carboxy-2-[(4-{(R)-2-[(S)-2-(cyclopropylmethyl-carbamoyl)-pyrrolidin-1-yl]-1-methyl-2-oxo-ethoxy}-7-methyl-quinoline-2-carbonyl)-amino]-butyryl}-piperazine-1-carboxylic acid ethyl ester]: the IC50 amounted to 5 nM.

On to `CCOC(=O)N1CCN(C(=O)[C@H](CCC(=O)O)NC(=O)c2cc(O[C@H](C)C(=O)N3CCC[C@H]3C(=O)N3CCCCC3)c3ccc(C)cc3n2)CC1` [Example 296, 4-{(S)-4-Carboxy-2-[(7-methyl-4-{(R)-1-methyl-2-oxo-2-[(S)-2-(piperidine-1-carbonyl)-pyrrolidin-1-yl]-ethoxy}-quinoline-2-carbonyl)-amino]-butyryl}-piperazine-1-carboxylic acid ethyl ester], for which the concentration for half-maximal inhibition (IC50) came to 12 nM.

For `CCCCOC(=O)N1CC(NC(=O)[C@H](CCC(=O)O)NC(=O)c2cc(OCC(=O)N3CCC[C@H]3C(=O)NC3CCC3)c3ccccc3n2)C1` [Example 424, 3-[(S)-4-Carboxy-2-({4-[2-((S)-2-cyclobutylcarbamoyl-pyrrolidin-1-yl)-2-oxo-ethoxy]-quinoline-2-carbonyl}-amino)-butyrylamino]-azetidine-1-carboxylic acid butyl ester], the half-inhibitory concentration (IC50) is 33 nM.

On to `CCOC(=O)N1CCN(C(=O)[C@H](CC(=O)O)NC(=O)c2cc(OCC(=O)N3CCC[C@H]3C(=O)NC3CCC3)c3cc(F)c(C)cc3n2)CC1` [Example 270, 4-[(S)-3-Carboxy-2-({4-[2-((S)-2-cyclobutylcarbamoyl-pyrrolidin-1-yl)-2-oxo-ethoxy]-6-fluoro-7-methyl-quinoline-2-carbonyl}-amino)-propionyl]-piperazine-1-carboxylic acid ethyl ester], for which the IC50 turned out to be 9 nM.

With `CCOC(=O)N1CCN(C(=O)[C@H](CCC(=O)O)NC(=O)c2cc(OCC(=O)N3CCCC3c3ccccc3)c3ccccc3n2)CC1` (stereo partly drawn) [Example 334, 4-[(S)-4-Carboxy-2-({4-[2-oxo-2-(2-phenyl-pyrrolidin-1-yl)-ethoxy]-quinoline-2-carbonyl}-amino)-butyryl]-piperazine-1-carboxylic acid ethyl ester], the IC50 was 102 nM.

For the molecule `CCOC(=O)N1CCN(C(=O)[C@H](CCC(=O)O)NC(=O)c2cc(OCC(=O)N3CCC[C@H]3C(=O)NCC(F)(F)F)c3ccccc3n2)CC1` [Example 121, 4-{(S)-4-Carboxy-2-[(4-{2-oxo-2-[(S)-2-(2,2,2-trifluoro-ethylcarbamoyl)-pyrrolidin-1-yl]-ethoxy}-quinoline-2-carbonyl)-amino]-butyryl}-piperazine-1-carboxylic acid ethyl ester], the half-inhibitory concentration (IC50) came to 67 nM.

Turning to `CCOC(=O)N1CCN(C(=O)[C@H](CCC(=O)OCC2CCCC2)NC(=O)c2cc(OCC(=O)N3CCC[C@H]3C(=O)NC3CCC3)c3ccc(C)cc3n2)CC1` [Example 246, 4-[(S)-2-({4-[2-((S)-2-Cyclobutylcarbamoyl-pyrrolidin-1-yl)-2-oxo-ethoxy]-7-methyl-quinoline-2-carbonyl}-amino)-4-cyclopentylmethoxycarbonyl-butyryl]-piperazine-1-carboxylic acid ethyl ester], the IC50 came to 71 nM.

Turning to `CCCCOC(=O)N1CCN(C(=O)CNC(=O)c2cc(OCC(=O)N3CCC[C@H]3C(=O)NC3CCC3)c3ccccc3n2)CC1` [Example 673, 4-[2-({4-[2-((S)-2-Cyclobutylcarbamoyl-pyrrolidin-1-yl)-2-oxo-ethoxy]-quinoline-2-carbonyl}-amino)-acetyl]-piperazine-1-carboxylic acid butyl ester], the IC50 came to 5 nM.

Take `CCOC(=O)[C@@H]1CCCN1C(=O)COc1cc(C(=O)N[C@@H](CCC(=O)O)C(=O)N2CCN(C(=O)OCC)CC2)nc2cc(C)ccc12` [Example 11, 4-[(S)-4-Carboxy-2-({4-[2-((S)-2-ethoxycarbonyl-pyrrolidin-1-yl)-2-oxo-ethoxy]-7-methyl-quinoline-2-carbonyl}-amino)-butyryl]-piperazine-1-carboxylic acid ethyl ester]: the IC50 turned out to be 132 nM.

The test system of another test is human platelet rich plasma. Description: Inhibition of human platelet aggregation, "Born"-method in single cuvettes (ADP-induced, platelet rich plasma). The format is cell-based. The settings on record: Platelet, 0.1 h, human PRP, aggregation induced by ADP, measured over 6 minutes at 37° C. As to the method: Alternatively to a binding assay which measures a compound's ability to bind to the P2Y12 receptor, the effect on cellular function was also determined. This ability of the compound was evaluated in two platelet aggregation assays: in 96-well plates and with the “Born”-method using single cuvettes.
Whole blood was collected from healthy volunteers using 20 ml syringes containing 2 ml of buffered Citrate. The anticoagulated whole blood was transferred into 15 ml polypropylene conical tubes (10 ml per tube). The tubes were centrifuged for 15 minutes at 340×g at RT without using the centrifuge brake. This procedure leads to a pellet of cellular components and a supernatant of platelet rich plasma (PRP). The PRP layer was collected from each tube and pooled for each donor. To avoid carry over of cellular components following centrifugation, approximately 5 ml of PRP was left in the tube. The platelet concentration was determined using a Coulter Counter.
The 15 ml tubes containing the pellet of cellular components were centrifuged again for 10 minutes at 1940×g. This pelleted out most particulate blood constituents remaining, leaving a layer of Platelet Poor Plasma (PPP). The PPP was collected for each donor. The PRP layer, previously set aside, was diluted with PPP to a final concentration of approximately 3×E8 platelets/ml with the PPP.
The human platelet aggregation assay is performed in single use cuvettes using the platelet aggregation profiler (PAP-4 or -8, Bio/Data corporation).
In the assay cuvette 4 μl of test compound at 100× final concentration in DMSO is mixed with 392 μl fresh PRP and incubated for 2 minutes at 37° C. with 1.200 rpm stirring. Following that incubation period, 4 μl of 250 μM ADP is added to the reaction mix. This addition of ADP is sufficient to induce aggregation in the absence of an inhibitor. After that aggregation is measured over 6 minutes at 37° C. with 1.200 rpm stirring. Results of the assay are expressed as % inhibition, and are calculated using maximum aggregation (Tmax) or area under curve (AUC) of the absorbance over 6 minutes.
Molecule `CCCCOC(=O)N1CCN(C(=O)[C@H](CCc2nnn(C)n2)NC(=O)c2cc(OCC(=O)N3CCC[C@H]3C(=O)NC3CCC3)c3ccc(C)cc3n2)CC1` [Example 693, 4-[(S)-2-({4-[2-((S)-2-Cyclobutylcarbamoyl-pyrrolidin-1-yl)-2-oxo-ethoxy]-7-methyl-quinoline-2-carbonyl}-amino)-4-(2-methyl-2H-tetrazol-5-yl)-butyryl]-piperazine-1-carboxylic acid butyl ester] registered a 50% inhibitory concentration (IC50) of 77 nM.

As to `CCCCOC(=O)N1CCN(C(=O)CNC(=O)c2cc(OCC(=O)N3CCC[C@H]3C(=O)NC3CCC3)c3ccc(C)cc3n2)CC1` [Example 435, 4-[2-({4-[2-((S)-2-Cyclobutylcarbamoyl-pyrrolidin-1-yl)-2-oxo-ethoxy]-7-methyl-quinoline-2-carbonyl}-amino)-acetyl]-piperazine-1-carboxylic acid butyl ester], the concentration for half-maximal inhibition (IC50) was determined as 30 nM.

`CCOC(=O)[C@@H]1C[C@@H](O)CN1C(=O)COc1cc(C(=O)N[C@@H](CCC(=O)O)C(=O)N2CCN(C(=O)OCC)CC2)nc2ccccc12` [Example 75, 4-[(S)-4-Carboxy-2-({4-[2-((2S,4R)-2-ethoxycarbonyl-4-hydroxy-pyrrolidin-1-yl)-2-oxo-ethoxy]-quinoline-2-carbonyl}-amino)-butyryl]-piperazine-1-carboxylic acid ethyl ester]: half-maximal inhibition (IC50) was put at 190 nM.

`CCOC(=O)N1CCN(C(=O)[C@H](CCC(=O)O)NC(=O)c2cc(OCC(=O)N3CC[C@H](CO)C3)c3ccc(C)cc3n2)CC1` [Example 50, 4-[(S)-4-Carboxy-2-({4-[2-((S)-3-hydroxymethyl-pyrrolidin-1-yl)-2-oxo-ethoxy]-7-methyl-quinoline-2-carbonyl}-amino)-butyryl]-piperazine-1-carboxylic acid ethyl ester] registered a 50% inhibitory concentration (IC50) of 590 nM.

The molecule `CCCCOC(=O)N1CCN(C(=O)CNC(=O)c2cc(OCC(=O)N3CCC[C@H]3C(=O)NC3CCCC3)c3ccc(C)cc3n2)CC1` [Example 594, 4-[2-({4-[2-((S)-2-Cyclopentylcarbamoyl-pyrrolidin-1-yl)-2-oxo-ethoxy]-7-methyl-quinoline-2-carbonyl}-amino)-acetyl]-piperazine-1-carboxylic acid butyl ester] had a half-maximal inhibitory concentration (IC50) of 20 nM.

In turn, `CCCCOC(=O)N1CCN(C(=O)[C@H](CCOC)NC(=O)c2cc(OCC(=O)N3CCC[C@H]3C(=O)NC3CCC3)c3ccc(C)cc3n2)CC1` [Example 521, 4-[(S)-2-({4-[2-((S)-2-Cyclobutylcarbamoyl-pyrrolidin-1-yl)-2-oxo-ethoxy]-7-methyl-quinoline-2-carbonyl}-amino)-4-methoxy-butyryl]-piperazine-1-carboxylic acid butyl ester] returned an IC50 of 120 nM.
